Assay [1] can be described thus: Ratio of IC50(presence of NaCl) to that of IC50(absence of NaCl).
The species entered for assay [2] is Mus musculus. Description: Compound was tested for irreversible inhibition of [3H]- Naltrexone binding with 10 nM naloxone+5 nM protection in the presence of NaCl (washed). Format: functional. The arrangement: scale not given: the % may be the effect or the level left.
The species named for assay [3] is Mus musculus. Description: Compound was tested for irreversible inhibition of [3H]- Naltrexone binding with 10 nM naloxone+ 5 nM protection in the presence of NaCl (washed). Format: functional. Further details: scale not given: the % may be the effect or the level left.
The species named for assay [4] is Mus musculus. The assay is described as follows: Compound was tested for irreversible inhibition of [3H]- Naltrexone binding with 10 nM naloxone+ 5 nM protection in the presence of NaCl (unwashed). Format: functional. Further details: scale not given: the % may be the effect or the level left.

Values joined by “and” are separate entries in the source; they are usually repeats but may differ in a detail not shown here. Identical values can stand only once.

The record followed here is ChEMBL document CHEMBL1122547, “Diastereomeric 6-desoxy-6-spiro-alpha-methylene-gamma-butyrolactone derivatives of naltrexone and oxymorphone. Selective irreversible inhibition of naltrexone binding in an opioid receptor preparation by a conformationally restricted michael acceptor ligand” (J Med Chem, 1984).

Consider `C=C1CC2(CCC3(O)[C@H]4Cc5ccc(O)c6c5[C@@]3(CCN4CC3CC3)C2O6)OC1=O` (stereo in doubt; 4a), for which the Ratio in assay [1] was 0.8.
Same read-out and setting: then `C=C1CC2(CCC3(O)[C@H]4Cc5ccc(O)c6c5[C@@]3(CCN4CC3CC3)C2O6)OC1=O` (stereo in doubt; 5a) [listing 1 of 2 here], with 0.4.
In the case of `C=C1CC2(CCC3(O)[C@H]4Cc5ccc(O)c6c5[C@@]3(CCN4CC3CC3)C2O6)OC1=O` (stereo in doubt; 5a) [listing 2 of 2 here], the Control in assay [2] was 80%; in assay [3], 93%; in assay [4] it was 28% and 13%.
`C=C1CC2(CCC3(O)[C@H]4Cc5ccc(O)c6c5[C@@]3(CCN4C)C2O6)OC1=O` (stereo in doubt; 4b): the Ratio in assay [1] turned out to be 7.6.
Still for that read-out and setting: to `C=C1CC2(CCC3(O)[C@H]4Cc5ccc(O)c6c5[C@@]3(CCN4C)C2O6)OC1=O` (stereo in doubt; 5b) belongs 7.1.
